Data published in patent US20020049185A1, “Malonic acid based matrix metalloproteinase inhibitors” (ROCHE DIAGNOSTICS GMBH, priority 1994, published 2002).
Residues, ends and D or L forms follow the SMILES beside them. *: point of attachment. NHOH = ON*

How the values were obtained:
[1] = molecular target: T1, catalytic domain (Met80-Gly242) of human neutrophil collagenase (Homo sapiens, UniProt P22894); assay: Enzyme assay: inhibition of cleavage of a fluorogenic substrate by the HNC catalytic domain; format: biochemical; details: HNC (MMP-8) catalytic domain, 25° C., substrate DNP-Pro-Leu-Gly-Leu-Trp-Ala-D-Arg-NH2
T1 construct: 8 nM catalytic domain (Met80-Gly242) of human neutrophil collagenase; made in house; host or cells: E. coli
T1 sequence (P22894 100-262): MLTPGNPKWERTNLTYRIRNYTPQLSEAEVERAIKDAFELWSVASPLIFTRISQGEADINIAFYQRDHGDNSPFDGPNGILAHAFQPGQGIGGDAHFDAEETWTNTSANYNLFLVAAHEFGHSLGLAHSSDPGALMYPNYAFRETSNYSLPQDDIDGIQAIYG
Procedure: In order to determine the inhibition of MMPs, for example HNC, the catalytic domain (isolation and purification see example 1) is incubated with inhibitors having various concentrations. Subsequently, the initial reaction rate in the conversion of a standard substrate is measured in a manner analogous to F. Grams et al. (1993)^51.
The results are evaluated by plotting the reciprocal reaction rate against the concentration of the inhibitor. The inhibition constant (Ki) is obtained as the negative section of the abscissis by the graphical method according to M. Dixon (1953)^28.
The synthetic collagenase substrate is a heptapeptide which is coupled, at the […], with DNP (dinitrophenol). Said DNP residue quenches by steric hindrance the fluorescence of the adjacent tryptophane of the heptapeptide. After cleavage of a tripeptide which includes the DNP group, the tryptophane fluorescence increases. The proteolytic cleavage of the substrate therefore can be measured by the fluorescence value.
The assay was performed at 25° C. in a freshly prepared 50 mM Tris buffer (pH 8.0) treated with dithiozone to remove traces of heavy metals. 4 mM CaCl2 was added and the buffer saturated wtih argon. Stock solutions of adamalysin II were prepared by centrifugation of the protein from an ammonium sulfate suspension and subsequent dissolution in the assay buffer Stock solutions of collagenase were diluted with the assay buffer. Enzyme concentrations were determined by uv measurements (ε280=2.8·10^4 M^−1 cm^−1, ε288·2.2 10^4 M^−1 cm^−1) and the stock solutions were stored in the cold. This solution was diluted 1 100 to obtain the final 16 nM assay concentration. The fluorogenic substrate DNP-ProLeu-Gly-Leu-Trp-Ala-D-Arg-NH2 with a Km of 52 μM was used at a concentration of 21.4 μM, for the Ki determination a 12.8 μM concentration has also been used. Substrate fluorescence was measured at an excitation and emission wavelength of λ=[…], respectively, on a spectrofluorimeter (Perkin Elmer, Model 650-40) equipped with a thermostated cell holder. Substrate hydrolysis was monitored for 10 min. immediately after adding the enzyme. All reactions were performed at least in triplicate. The Ki values of the inhibitors were calculated from the intersection point of the straight lines obtained by the plots of vo/vi vs. [concentration of inhibitor], whereas IC50 values were calculated from plots of vi/vo [concentration of inhibitor] by non-linear regression with simple robust weighting.
50 mM Tris/HCl pH 7.6 (Tris=Tris-(hydroxymethyl)-aminomethan)
8 nM catalytic domain (Met80-Gly242) of human neutrophil collagenase
10 microM DNP-Pro-Leu-Gly-Leu-Trp-Ala-D-Arg-NH2
A solution of the enzyme and inhibitor in assay buffer (25° C.) was prepared. The reaction was started directly by giving the substrate into the solution. The cleavage of the flourogenic substrate was followed by flourescence spectroscopy with an excitation and emision wavelength of 280 and 350 nm, respectively. The IC50 value was calculated as the inhibitor concentration, which is necessary to decrease the velocity of the reaction to the half in comparison to the reaction without inhibitor.

MMPs = assay: Inhibition of MMPs; format: biochemical
collagenase = collagenase (Homo sapiens, UniProt P22894); assay: Affinity for collagenase (statement in text, HNC complex); format: binding
Chain of collagenase (P22894 101-467): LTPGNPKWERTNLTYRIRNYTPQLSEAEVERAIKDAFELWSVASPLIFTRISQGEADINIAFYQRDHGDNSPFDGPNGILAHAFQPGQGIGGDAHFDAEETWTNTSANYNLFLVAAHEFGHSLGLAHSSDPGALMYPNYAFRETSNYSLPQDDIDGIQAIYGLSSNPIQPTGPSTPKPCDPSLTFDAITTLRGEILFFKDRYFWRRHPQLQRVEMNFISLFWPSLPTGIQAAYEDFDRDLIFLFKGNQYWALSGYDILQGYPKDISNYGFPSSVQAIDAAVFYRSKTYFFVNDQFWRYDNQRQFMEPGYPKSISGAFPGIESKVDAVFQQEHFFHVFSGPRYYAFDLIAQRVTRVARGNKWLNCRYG

| IC50 [1] | Structure (SMILES) | inhibition of MMPs (in words) (MMPs) | affinity for collagenase (in words) (collagenase) |
| --- | --- | --- | --- |
| 139 µM | CC(C)CC(C(=O)NO)C(=O)N[C@@H](C)C(=O)NCC(N)=O (stereo partly drawn) [ER029, HONH-2-isobutylmalonyl-L-alanyl glycinamide, reference compound] | very poorly |  |
| 29 µM | CC(C)CC(C(=O)NO)C(=O)NC(Cc1ccccc1)C(=O)NCc1ccccc1 (mixture of isomers) [ER074, HONH-iBM-Phe-NHBn] |  |  |
| 1.6 µM | Cc1ccc(CCNC(=O)C(CCc2ccccc2)NC(=O)C(CC(C)C)C(=O)NO)cc1 (mixture of isomers) [ER070, HONH-iBM-Homophe-NHCH2CH2Ph(p-Me)] |  |  |
| 63 µM | CC(C)CC(C(=O)NO)C(=O)NC(CC(N)=O)C(=O)NCc1ccccc1 (mixture of isomers) [ER017, HONH-iBM-Asn-NHBn] |  |  |
| 58 µM | CC(C)CC(C(=O)NO)C(=O)NC(C)C(=O)NCc1ccccc1 (mixture of isomers) [ER014, HONH-iBM-Ala-NHBn] |  |  |
| 61 µM | CC(C)CC(C(=O)NO)C(=O)NC(CO)C(=O)NCC(=O)NCc1ccccc1 (mixture of isomers) [ER059, HONH-iBM-Ser-Gly-NHBn] |  |  |
| 30 µM | CC(C)CC(C(=O)NO)C(=O)NC(CC(N)=O)C(=O)NCc1cccc(N)c1 (mixture of isomers) [ER031, HONH-iBM-Asn-NHBn(m-NH2)] |  |  |
| 40 µM | CC(C)CC(C(=O)NO)C(=O)NC(CO)C(=O)NCc1ccccc1 (mixture of isomers) [ER028, HONH-iBM-Ser-NHBn] |  |  |
|  | CC(C)C[C@H](NC(=O)[C@@H]1CCCN1)C(=O)NCC(=O)NO [PLG-NHOH, L-prolyl-L-leucyl-glycin-hydroxamate] (H-Pro-Leu-Gly-{NHOH}) |  | relatively weak |
